In patent US20240228463A1, “SODIUM CHANNEL INHIBITORS AND METHODS OF DESIGNING SAME” (Genentech, Inc., priority 2021, published 2024) one finds IC50 data, which are given here for 35 compounds.

This test deals with T1, hNaV1.7 (Homo sapiens, UniProt Q15858).
T1 construct: expressed in transfected cells
T1 sequence (Q15858 1-1977 isoform Q15858-3): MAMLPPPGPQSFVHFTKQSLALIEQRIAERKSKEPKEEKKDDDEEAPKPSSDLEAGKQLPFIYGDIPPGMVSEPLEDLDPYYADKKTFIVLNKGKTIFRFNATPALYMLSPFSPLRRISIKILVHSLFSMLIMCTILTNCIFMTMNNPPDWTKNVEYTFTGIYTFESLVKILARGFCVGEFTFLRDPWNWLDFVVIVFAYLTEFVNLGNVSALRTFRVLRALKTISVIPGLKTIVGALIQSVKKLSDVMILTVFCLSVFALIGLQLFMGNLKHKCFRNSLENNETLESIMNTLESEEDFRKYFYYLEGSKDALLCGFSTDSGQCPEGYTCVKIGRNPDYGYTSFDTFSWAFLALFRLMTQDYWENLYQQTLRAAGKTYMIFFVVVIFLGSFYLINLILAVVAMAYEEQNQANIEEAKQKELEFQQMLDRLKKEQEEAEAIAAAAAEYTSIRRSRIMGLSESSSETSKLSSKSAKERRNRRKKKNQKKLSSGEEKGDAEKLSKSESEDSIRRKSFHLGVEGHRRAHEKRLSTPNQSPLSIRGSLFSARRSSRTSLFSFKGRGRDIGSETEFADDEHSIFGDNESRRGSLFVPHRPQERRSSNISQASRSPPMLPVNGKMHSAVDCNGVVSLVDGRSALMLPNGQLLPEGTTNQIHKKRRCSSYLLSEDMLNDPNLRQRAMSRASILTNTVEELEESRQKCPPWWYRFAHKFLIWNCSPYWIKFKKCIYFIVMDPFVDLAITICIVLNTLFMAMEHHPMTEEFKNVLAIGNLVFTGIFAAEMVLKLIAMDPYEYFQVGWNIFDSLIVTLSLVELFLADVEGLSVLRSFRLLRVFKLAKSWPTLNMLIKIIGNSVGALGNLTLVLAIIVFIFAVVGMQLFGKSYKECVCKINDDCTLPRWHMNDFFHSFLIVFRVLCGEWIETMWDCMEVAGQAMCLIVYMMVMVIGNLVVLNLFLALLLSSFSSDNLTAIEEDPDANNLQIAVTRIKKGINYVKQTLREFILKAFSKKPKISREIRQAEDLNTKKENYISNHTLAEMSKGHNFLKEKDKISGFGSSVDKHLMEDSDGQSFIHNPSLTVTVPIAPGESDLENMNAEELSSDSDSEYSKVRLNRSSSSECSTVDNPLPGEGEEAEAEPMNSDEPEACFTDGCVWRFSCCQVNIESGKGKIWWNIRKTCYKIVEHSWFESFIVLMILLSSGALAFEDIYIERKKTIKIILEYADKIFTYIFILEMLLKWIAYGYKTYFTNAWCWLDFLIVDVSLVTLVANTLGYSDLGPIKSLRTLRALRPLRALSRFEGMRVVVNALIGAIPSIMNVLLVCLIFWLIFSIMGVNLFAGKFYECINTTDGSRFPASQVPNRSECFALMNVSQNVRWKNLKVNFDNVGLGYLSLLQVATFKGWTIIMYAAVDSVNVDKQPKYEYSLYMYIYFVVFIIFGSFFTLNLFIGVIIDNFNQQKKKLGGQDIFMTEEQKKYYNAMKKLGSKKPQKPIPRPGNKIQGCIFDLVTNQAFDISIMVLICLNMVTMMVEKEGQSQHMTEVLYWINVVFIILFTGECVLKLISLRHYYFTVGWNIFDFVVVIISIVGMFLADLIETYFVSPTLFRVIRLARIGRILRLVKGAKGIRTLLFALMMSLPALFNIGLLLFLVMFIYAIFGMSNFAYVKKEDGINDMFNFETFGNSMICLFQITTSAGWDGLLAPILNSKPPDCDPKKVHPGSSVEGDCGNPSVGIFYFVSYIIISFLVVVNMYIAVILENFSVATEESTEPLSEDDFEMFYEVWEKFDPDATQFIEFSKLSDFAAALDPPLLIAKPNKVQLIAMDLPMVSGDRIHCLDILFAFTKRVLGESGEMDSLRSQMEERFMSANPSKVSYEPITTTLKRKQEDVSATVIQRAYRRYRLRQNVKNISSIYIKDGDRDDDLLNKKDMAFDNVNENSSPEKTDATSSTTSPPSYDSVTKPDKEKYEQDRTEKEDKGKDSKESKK
Put plainly: Patch voltage clamp electrophysiology (EP), Syncropatch 384PE, Nav1.7 in CHO cells.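 Also: Nav1.7 stably expressed from cDNA in CHO cells, holding potential of −50 mV kept for the entire experiment.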 In kind it is cell-based. The following applies: holding potential −50 mV, inhibition based on 7.5 min compound incubation, read-out: hNaV1.7 EP_SP. (In general: Patch clamp records ionic current or voltage across a cell membrane.)
As for `O=C(NS(=O)(=O)c1ccc2c(c1)CCO2)c1cc(Cl)c(OCC2CCCC2)cc1F` [Example 271, 5-chloro-4-(cyclopentylmethoxy)-N-((2,3-dihydrobenzofuran-5-yl)sulfonyl)-2-fluorobenzamide], the IC50 amounted to 260 nM.

As for `N#Cc1ccc(S(=O)(=O)NC(=O)c2cc(Cl)c(OCC3CCCC3)cc2F)c(F)c1` [Example 272, 5-chloro-N-((4-cyano-2-fluorophenyl)sulfonyl)-4-(cyclopentylmethoxy)-2-fluorobenzamide], the IC50 turned out to be 210 nM.

For `O=C(NS(=O)(=O)Cc1ccc2ncccc2c1)c1cc(Cl)c(OCC2CCCC2)cc1F` [Example 273, 5-chloro-4-(cyclopentylmethoxy)-2-fluoro-N-((quinolin-6-ylmethyl)sulfonyl)benzamide], the IC50 was 230 nM.

With `O=C(NS(=O)(=O)CCOCc1ccccc1)c1cc(Cl)c(OCC2CCCC2)cc1F` [Example 274, N-((2-(benzyloxy)ethyl)sulfonyl)-5-chloro-4-(cyclopentylmethoxy)-2-fluorobenzamide], the IC50 turned out to be 230 nM.

As for `O=C(NS(=O)(=O)C1=Cc2ccccc2CC1)c1cc(Cl)c(OCC2CCCC2)cc1F` [Example 275, 5-chloro-4-(cyclopentylmethoxy)-N-((3,4-dihydronaphthalen-2-yl)sulfonyl)-2-fluorobenzamide], the IC50 turned out to be 510 nM.

Take `O=C(NS(=O)(=O)c1ccc(OC2CC2)cc1)c1cc(Cl)c(OCC2CCCC2)cc1F` [Example 276, 5-chloro-4-(cyclopentylmethoxy)-N-((4-cyclopropoxyphenyl)sulfonyl)-2-fluorobenzamide]: the IC50 worked out at 130 nM.

Regarding `NC(=O)[C@@H]1Cc2cc(S(=O)(=O)NC(=O)c3cc(Cl)c(OCC4CCCC4)cc3F)ccc2O1` [Example 277, (S)-5-(N-(5-chloro-4-(cyclopentylmethoxy)-2-fluorobenzoyl)sulfamoyl)-2,3-dihydrobenzofuran-2-carboxamide], the IC50 came to 590 nM.

For `O=C(NS(=O)(=O)c1ccc2ccccc2c1F)c1cc(Cl)c(OCC2CCCC2)cc1F` [Example 278, 5-chloro-4-(cyclopentylmethoxy)-2-fluoro-N-((1-fluoronaphthalen-2-yl)sulfonyl)benzamide], the IC50 is 960 nM.

`O=C(NS(=O)(=O)c1ccc(F)c2ncccc12)c1cc(Cl)c(OCC2CCCC2)cc1F` [Example 279, 5-chloro-4-(cyclopentylmethoxy)-2-fluoro-N-((8-fluoroquinolin-5-yl)sulfonyl)benzamide]: the IC50 worked out at 500 nM.

Consider `N#Cc1ccc(S(=O)(=O)NC(=O)c2cc(Cl)c(OCC3CCCC3)cc2F)cc1C(F)(F)F` [Example 280, 5-chloro-N-((4-cyano-3-(trifluoromethyl)phenyl)sulfonyl)-4-(cyclopentylmethoxy)-2-fluorobenzamide], for which the IC50 amounted to 710 nM.

Regarding `O=C(NS(=O)(=O)c1ccc2c(c1)OCCO2)c1cc(Cl)c(OCC2CCCC2)cc1F` [Example 281, 5-chloro-4-(cyclopentylmethoxy)-N-((2,3-dihydrobenzo[b][1,4]dioxin-6-yl)sulfonyl)-2-fluorobenzamide], the IC50 amounted to 320 nM.

For `O=C(NS(=O)(=O)c1ccc2c(c1)NCC2)c1cc(Cl)c(OCC2CCCC2)cc1F` [Example 282, 5-chloro-4-(cyclopentylmethoxy)-2-fluoro-N-(indolin-6-ylsulfonyl)benzamide], the IC50 was found to be 760 nM.

With `O=C(NS(=O)(=O)c1ccc(C(F)(F)F)cc1)c1cc(Cl)c(OCC2CCCC2)cc1F` [Example 283, 5-chloro-4-(cyclopentylmethoxy)-2-fluoro-N-((4-(trifluoromethyl)phenyl)sulfonyl)benzamide], the IC50 was 620 nM.

As to `CCOc1ccc(S(=O)(=O)NC(=O)c2cc(Cl)c(OCC3CCCC3)cc2F)cn1` [Example 285, 5-chloro-4-(cyclopentylmethoxy)-N-((6-ethoxypyridin-3-yl)sulfonyl)-2-fluorobenzamide], the IC50 was determined as 350 nM.

Take `Cn1ncnc1COc1ccc(S(=O)(=O)NC(=O)c2cc(Cl)c(OCC3CCCC3)cc2F)cc1` [Example 286, 5-chloro-4-(cyclopentylmethoxy)-2-fluoro-N-((4-((1-methyl-1H-1,2,4-triazol-5-yl)methoxy)phenyl)sulfonyl)benzamide]: the IC50 was 160 nM.

With `O=C(NS(=O)(=O)c1ccc(OCC(F)(F)F)cc1)c1cc(Cl)c(OCC2CCCC2)cc1F` [Example 287, 5-chloro-4-(cyclopentylmethoxy)-2-fluoro-N-((4-(2,2,2-trifluoro-ethoxy)phenyl)sulfonyl)benzamide], the IC50 is 250 nM.

Turning to `O=C(NS(=O)(=O)c1ccc(Oc2ccc(Cl)cc2)cc1)c1cc(Cl)c(OCC2CCCC2)cc1F` [Example 288, 5-chloro-N-((4-(4-chlorophenoxy)phenyl)sulfonyl)-4-(cyclopentylmethoxy)-2-fluorobenzamide], the IC50 was 490 nM.

On to `O=C(NS(=O)(=O)c1ccc2c(c1)OCCCO2)c1cc(Cl)c(OCC2CCCC2)cc1F` [Example 289, 5-chloro-4-(cyclopentylmethoxy)-N-((3,4-dihydro-2H-benzo[b][1,4]dioxepin-7-yl)sulfonyl)-2-fluorobenzamide], for which the IC50 amounted to 710 nM.

Regarding `O=C(NS(=O)(=O)c1ccc2ccccc2c1)c1cc(Cl)c(OCC2CCCC2)cc1F` [Example 290, 5-chloro-4-(cyclopentylmethoxy)-2-fluoro-N-(naphthalen-2-ylsulfonyl)benzamide], the IC50 amounted to 760 nM.

For `COc1ccccc1-n1cc(S(=O)(=O)NC(=O)c2cc(Cl)c(OCC3CCCC3)cc2F)cn1` [Example 291, 5-chloro-4-(cyclopentylmethoxy)-2-fluoro-N-((1-(2-methoxyphenyl)-1H-pyrazol-4-yl)sulfonyl)benzamide], the IC50 was 350 nM.

For the compound `O=C(NS(=O)(=O)c1ccc(Cn2cncn2)cc1)c1cc(Cl)c(OCC2CCCC2)cc1F` [Example 292, N-((4-((1H-1,2,4-triazol-1-yl)methyl)phenyl)sulfonyl)-5-chloro-4-(cyclopentylmethoxy)-2-fluorobenzamide], the IC50 was determined as 430 nM.

Consider `O=C(NS(=O)(=O)c1ccc(OC(F)(F)F)cc1Cl)c1cc(Cl)c(OCC2CCCC2)cc1F` [Example 293, 5-chloro-N-((2-chloro-4-(trifluoromethoxy)phenyl)sulfonyl)-4-(cyclopentylmethoxy)-2-fluorobenzamide], for which the IC50 worked out at 850 nM.

Regarding `O=C(NS(=O)(=O)c1ccc(OCc2ccccc2)cc1)c1cc(Cl)c(OCC2CCCC2)cc1F` [Example 294, N-((4-(benzyloxy)phenyl)sulfonyl)-5-chloro-4-(cyclopentylmethoxy)-2-fluorobenzamide], the IC50 was 130 nM.

`O=C(NS(=O)(=O)c1ccc(OCc2ncccn2)cc1)c1cc(Cl)c(OCC2CCCC2)cc1F` [Example 295, 5-chloro-4-(cyclopentylmethoxy)-2-fluoro-N-((4-(pyrimidin-2-ylmethoxy)phenyl)sulfonyl)benzamide]: the IC50 stood at 230 nM.

Consider `O=C(NS(=O)(=O)c1ccc(OCC2CNC2)cc1)c1cc(Cl)c(OCC2CCCC2)cc1F` [Example 296, N-((4-(azetidin-3-ylmethoxy)phenyl)sulfonyl)-5-chloro-4-(cyclopentylmethoxy)-2-fluorobenzamide], for which the IC50 amounted to 280 nM.

For `CC(=O)N1CCc2cccc(COc3ccc(S(=O)(=O)NC(=O)c4cc(Cl)c(OCC5CCCC5)cc4F)cc3)c2C1` [Example 297, N-((4-((2-acetyl-1,2,3,4-tetrahydroisoquinolin-8-yl)methoxy)phenyl)sulfonyl)-5-chloro-4-(cyclopentylmethoxy)-2-fluorobenzamide], the IC50 was found to be 22 nM.

As to `O=C(NS(=O)(=O)c1ccc(OCc2cccc(F)c2)cc1)c1cc(Cl)c(OCC2CCCC2)cc1F` [Example 298, 5-chloro-4-(cyclopentylmethoxy)-2-fluoro-N-((4-((3-fluorobenzyl)oxy)-phenyl)sulfonyl)benzamide], the IC50 was 220 nM.

In the case of `Cn1cc(COc2ccc(S(=O)(=O)NC(=O)c3cc(Cl)c(OCC4CCCC4)cc3F)cc2)cn1` [Example 299, 5-chloro-4-(cyclopentylmethoxy)-2-fluoro-N-((4-((1-methyl-1H-pyrazol-4-yl)methoxy)phenyl)sulfonyl)benzamide], the IC50 turned out to be 38 nM.

For the compound `NCc1cccc(COc2ccc(S(=O)(=O)NC(=O)c3cc(Cl)c(OCC4CCCC4)cc3F)cc2)c1` [Example 300, N-((4-((3-(aminomethyl)benzyl)oxy)phenyl)sulfonyl)-5-chloro-4-(cyclopentylmethoxy)-2-fluorobenzamide], the IC50 came out at 3.2 nM.

As to `O=C(NS(=O)(=O)c1ccc(OCc2ccccn2)cc1)c1cc(Cl)c(OCC2CCCC2)cc1F` [Example 301, 5-chloro-4-(cyclopentylmethoxy)-2-fluoro-N-((4-(pyridin-2-ylmethoxy)phenyl)sulfonyl)benzamide], the IC50 turned out to be 39 nM.

Turning to `Cc1cc(C)cc(COc2ccc(S(=O)(=O)NC(=O)c3cc(Cl)c(OCC4CCCC4)cc3F)cc2)c1` [Example 303, 5-chloro-4-(cyclopentylmethoxy)-N-((4-((3,5-dimethyl-benzyl)oxy)phenyl)sulfonyl)-2-fluorobenzamide], the IC50 was 260 nM.

Turning to `O=C(NS(=O)(=O)c1ccc(OCc2cncnc2)cc1)c1cc(Cl)c(OCC2CCCC2)cc1F` [Example 304, 5-chloro-4-(cyclopentylmethoxy)-2-fluoro-N-((4-(pyrimidin-5-ylmethoxy)phenyl)sulfonyl)benzamide], the IC50 came to 570 nM.

Turning to `O=C(NS(=O)(=O)c1ccc(OCC2CCCN2)cc1)c1cc(Cl)c(OCC2CCCC2)cc1F` (centres unmarked) [Example 305, 5-chloro-4-(cyclopentylmethoxy)-2-fluoro-N-((4-(pyrrolidin-2-ylmethoxy)phenyl)sulfonyl)benzamide], the IC50 worked out at 360 nM.

`COc1cc(COc2ccc(S(=O)(=O)NC(=O)c3cc(Cl)c(OCC4CCCC4)cc3F)cc2)cc(OC)c1` [Example 306, 5-chloro-4-(cyclopentylmethoxy)-N-((4-((3,5-dimethoxy-benzyl)oxy)phenyl)sulfonyl)-2-fluorobenzamide]: the IC50 was determined as 170 nM.

Take `O=C(NS(=O)(=O)c1ccc(OCc2cc(F)cc(F)c2)cc1)c1cc(Cl)c(OCC2CCCC2)cc1F` [Example 307, 5-chloro-4-(cyclopentylmethoxy)-N-((4-((3,5-difluorobenzyl)oxy)phenyl)sulfonyl)-2-fluorobenzamide]: the IC50 amounted to 730 nM.
